Like-named read-outs stand apart in the source and are kept apart here.
Key:
[1] = target: T1, bradykinin 1 receptor (B1R) of the rat (Rattus norvegicus, UniProt P97583); assay: Functional investigation on the rat bradykinin 1 receptor (B1R), Ca2+ FLIPR assay in CHO K1 rB1R cells; type: cell-based
T1 construct: expressed in transfected cells; host or cells: CHO K1 cells
T1 sequence (P97583 1-337): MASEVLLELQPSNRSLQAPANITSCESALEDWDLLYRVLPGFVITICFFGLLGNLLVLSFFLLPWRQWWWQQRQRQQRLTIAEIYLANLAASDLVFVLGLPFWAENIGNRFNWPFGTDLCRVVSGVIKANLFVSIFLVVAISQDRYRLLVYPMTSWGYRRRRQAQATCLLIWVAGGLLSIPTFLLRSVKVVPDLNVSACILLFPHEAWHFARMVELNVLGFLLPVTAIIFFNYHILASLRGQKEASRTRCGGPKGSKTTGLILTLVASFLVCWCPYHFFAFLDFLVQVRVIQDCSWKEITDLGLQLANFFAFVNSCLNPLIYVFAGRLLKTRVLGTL
Excerpt: (§1) Functional Investigation on the Human Bradykinin 1 Receptor (B1R)
(§2) The agonistic or antagonistic action of substances can be determined on the bradykinin 1 receptor (B1R) of the human species and rats with the following assay. In accordance with this assay, the Ca^2+ inflow through the channel is quantified with the aid of a Ca^2=-sensitive dyestuff (type Fluo-4, Molecular Probes Europe BV, Leiden, Holland) in a fluorescent imaging plate reader (FLIPR, Molecular Devices, Sunnyvale, USA).
(§3) Chinese hamster ovary cells (CHO K1 cells) transfected stably with the human B1R gene (hB1R cells) or the B1R gene of the rat (rB1R cells) are used. For functional studies, these cells are plated out on black 96-well plates with a clear base (BD Biosciences, Heidelberg, Germany or Greiner, Frickenhausen, Germany) in a density of 20,000-35,000 cells/well. The cells are left overnight at 37° C. and 5% CO2 in culture medium (hB1R cells: Nutrient Mixture Ham's F12, Gibco Invitrogen GmbH, Karlsruhe, Germany or DMEM, Sigma-Aldrich, Taufkirchen, Germany; rB1R cells: D-MEM/F12, Gibco Invitrogen GmbH, Karlsruhe, Germany) with 10 vol. % of FBS (foetal bovine serum, Gibco Invitrogen GmbH, Karlsruhe, Germany or PAN Biotech GmbH, Aidenbach, Germany).
(§4) On the following day, the cells are loaded for 60 min at 37° C. with 2.13 μM Fluo-4 (Molecular Probes Europe BV, Leiden, The Netherlands) in HBSS buffer (Hank's buffered saline solution, Gibco Invitrogen GmbH, Karlsruhe, Germany) with 2.5 mM probenecid (Sigma-Aldrich, Taufkirchen, Germany) and 10 mM HEPES (Sigma-Aldrich, Taufkirchen, Germany). The plates are then washed 2× with HBSS buffer, and HBSS buffer which additionally contains 0.1% of BSA (bovine serum albumin; Sigma-Aldrich, Taufkirchen, Germany), 5.6 mM glucose and 0.05% of gelatine (Merck KGaA, Darmstadt, Germany) is added. After a further incubation of 20 minutes at room temperature, the plates are inserted into the FLIPR for the Ca^2+ measurement.
(§5) Alternatively, the plates are washed with buffer A (15 mM HEPES, 80 mM NaCl, 5 mM KCl, 1.2 mM CaCl2, 0.7 mM MgSO4, 2 g/l glucose, 2.5 mM probenecid), buffer A is added and the plates are loaded with 2.5 μM Fluo-4 and 0.025% of Pluronic F127 (Sigma-Aldrich, Taufkirchen, Germany). Thereafter, the cells are washed 2× with buffer A and incubated for 30 minutes with buffer A, which additionally contains 0.05% of BSA and 0.05% of gelatine, at room temperature and thereafter inserted into the FLIPR for the Ca^2+ measurement.
(§6) The Ca^2+-dependent fluorescence is measured before and after addition of substances (λex=488 nm, λem=540 nm). Quantification is by measurement of the highest fluorescence intensity (FC, fluorescence counts) over time.
(§7) The FLIPR protocol consists of 2 additions of substance. Test substances (10 μM) are first pipetted on to the cells and the Ca^2+ inflow is compared with the control (hB1R: Lys-Des-Arg^9-bradykinin >=50 nM; rB1R: Des-Arg^9-bradykinin 10 μM). This gives the information in % activation based on the Ca^2+ signal after addition of Lys-Des-Arg^9-bradykinin (>=50 nM) or Des-Arg^9-bradykinin (10 μM).
(§8) After incubation for 10-20 minutes, Lys-Des-Arg^9-bradykinin (hB1R) or Des-Arg^9-bradykinin (rB1R) is applied in the concentration of the EC80 and the inflow of Ca^2+ is likewise determined.
(§9) Antagonists lead to a suppression of the Ca^2+ inflow. % inhibition compared with the maximum achievable inhibition is calculated.
(§10) To determine the IC50 value, the substances are added in various concentrations. Duplicate or triplicate determinations (n=2 or n=3) are carried out, and these are repeated in at least one further independent experiment (N>=2).
(§11) Preferably, the compounds have a B1R antagonistic action on the human receptor and/or on the rat receptor. The following data are given by way of example in the following table: (In this, “B1R Ant. h” represents “B1R antagonism human” and “B1R Ant. r” represents “B1R antagonism rat”)

[2] = target: T2, human bradykinin 1 receptor (B1R) (Homo sapiens, UniProt P46663); assay: Functional investigation on the human bradykinin 1 receptor (B1R), Ca2+ FLIPR assay in CHO K1 hB1R cells; type: cell-based
T2 construct: expressed in transfected cells; host or cells: CHO K1 cells
T2 sequence (P46663 1-353): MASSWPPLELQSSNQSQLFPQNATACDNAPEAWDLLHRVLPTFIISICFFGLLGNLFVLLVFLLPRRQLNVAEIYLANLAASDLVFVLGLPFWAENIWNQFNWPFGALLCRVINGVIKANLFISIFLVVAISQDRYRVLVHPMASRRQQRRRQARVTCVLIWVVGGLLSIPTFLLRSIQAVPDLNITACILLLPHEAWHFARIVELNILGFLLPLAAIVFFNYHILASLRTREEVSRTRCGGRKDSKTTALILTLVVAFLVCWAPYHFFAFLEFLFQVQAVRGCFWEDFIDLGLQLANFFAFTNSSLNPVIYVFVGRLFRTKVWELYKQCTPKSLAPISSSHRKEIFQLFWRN
Excerpt: as §1, §2, §3, §4, §5, §6, §7, §8, §9, §10, §11

[3] = CHO-K1, B1R antagonism rat, test substance 10 μM, Ca2+ FLIPR, CHO K1 rB1R cells, read-out: B1R Ant. r [10 μM] % Inhibition
[4] = CHO-K1, B1R antagonism human, test substance 10 μM, Ca2+ FLIPR, CHO K1 hB1R cells, read-out: B1R Ant. h [10 μM] % Inhibition

SMILES	inhibition at 10 µM [1, 3] [%]	inhibition at 10 µM [2, 4] [%]	inhibition at 10 µM ([1]; CHO-K1, read-out: B1R Ant. r [10 μM] % Inhibition) [%]	inhibition at 10 µM ([2]; CHO-K1, read-out: B1R Ant. h [10 μM] % Inhibition) [%]
CN(C)C(CCc1ccccc1)C1CCC(NC(=O)CNC(=O)c2nc(-c3cc(Cl)cc(Cl)c3)no2)CC1 (stereo not drawn) [Example 790, 3-(3,5-dichloro-phenyl)-[1,2,4]oxadiazole-5-carboxylic acid {[4-(1-dimethylamino-3-phenyl-propyl)-cyclohexylcarbamoyl]-methyl}-amide]	11	35		
O=C(COCCN(C1CC1)S(=O)(=O)c1c(Cl)cc(Cl)cc1Cl)NC1CCC(C(c2ccccc2)N2CCOCC2)CC1 (stereo not drawn) [Example 605, 2-{2-[cyclopropyl-(2,4,6-trichlorobenzenesulfonyl)-amino]-ethoxy}-N-[4-(morpholin-4-yl-phenylmethyl)-cyclohexyl]-acetamide]	38	40		
O=C(COC1CCN(S(=O)(=O)c2c(Cl)cc(Cl)cc2Cl)C1)NC1CCC(C(c2ccccc2)N2CCOCC2)CC1 (stereo not drawn) [Example 610, N-[4-(morpholin-4-ylphenylmethyl)-cyclohexyl]-2-[1-(2,4,6-trichlorobenzenesulfonyl)-pyrrolidin-3-yloxy]-acetamide]	5	12		
CN(C)C(CCc1ccccc1)C1CCC(NC(=O)CNC(=O)c2nc(-c3ccc(C(C)(C)C)cc3)no2)CC1 (stereo not drawn) [Example 786, 3-(4-tert-butyl-phenyl)-[1,2,4]oxadiazole-5-carboxylic acid {[4-(1-dimethylamino-3-phenyl-propyl)-cyclohexylcarbamoyl]-methyl}-amide]	-4	35		
CN(C)C(CCc1ccccc1)C1CCC(NC(=O)CCNC(=O)c2nc(-c3ccc(Cl)cc3Cl)no2)CC1 (stereo not drawn) [Example 788, 3-(2,4-dichloro-phenyl)-[1,2,4]oxadiazole-5-carboxylic acid {2-[4-(1-dimethylamino-3-phenyl-propyl)-cyclohexylcarbamoyl]-ethyl}-amide]	11	90		
CN(C)C(c1ccccc1)C1CCC(NC(=O)CCNC(=O)c2nc(-c3ccccn3)no2)CC1 (stereo not drawn) [Example 771, 3-pyridin-2-yl-[1,2,4]oxadiazole-5-carboxylic acid {2-[4-(dimethylamino-phenyl-methyl)-cyclohexylcarbamoyl]-ethyl}-amide]	8	-16		
CN(C)C(c1ccccc1)C1CCC(NC(=O)CNC(=O)c2nc(-c3ccc(C(C)(C)C)cc3)no2)CC1 (stereo not drawn) [Example 766, 3-(4-tert-butyl-phenyl)-[1,2,4]oxadiazole-5-carboxylic acid {[4-(dimethylamino-phenyl-methyl)-cyclohexylcarbamoyl]-methyl}-amide]	-9	6		
CN(C)C(CCc1ccccc1)C1CCC(NC(=O)CNC(=O)c2nc(-c3ccccn3)no2)CC1 (stereo not drawn) [Example 791, 3-pyridin-2-yl-[1,2,4]oxadiazole-5-carboxylic acid {[4-(1-dimethylamino-3-phenyl-propyl)-cyclohexylcarbamoyl]-methyl}-amide]			16	-3
COc1ccc(-c2noc(C(=O)NCCC(=O)NC3CCC(C(CCc4ccccc4)N(C)C)CC3)n2)cc1OC (stereo not drawn) [Example 789, 3-(3,4-dimethoxy-phenyl)-[1,2,4]oxadiazole-5-carboxylic acid {2-[4-(1-dimethylamino-3-phenyl-propyl)-cyclohexylcarbamoyl]-ethyl}-amide]	-6	-11		
CN(C)C(c1ccccc1)C1CCC(NC(=O)CCNC(=O)c2nc(-c3ccc4c(c3)OCO4)no2)CC1 (stereo not drawn) [Example 768, 3-benzo[1,3]dioxol-5-yl-[1,2,4]oxadiazole-5-carboxylic acid {2-[4-(dimethylamino-phenyl-methyl)-cyclohexylcarbamoyl]-ethyl}-amide]	-2	-3		
CN(Cc1ccccc1)C(c1ccccc1)C1CCC(NC(=O)COCCN(C2CC2)S(=O)(=O)c2c(Cl)cc(Cl)cc2Cl)CC1 (stereo not drawn) [Example 604, N-{4-[(benzylmethylamino)-phenylmethyl]-cyclohexyl}-2-{2-[cyclopropyl-(2,4,6-trichlorobenzenesulfonyl)-amino]-ethoxy}-acetamide]	33	-18		
Cc1ccc(F)cc1-c1noc(C(=O)NCC(=O)NC2CCC(C(c3ccccc3)N(C)C)CC2)n1 (stereo not drawn) [Example 767, 3-(5-fluoro-2-methyl-phenyl)-[1,2,4]oxadiazole-5-carboxylic acid {[4-(dimethylamino-phenyl-methyl)-cyclohexylcarbamoyl]-methyl}-amide]	17	43		
Cc1cc(C)c(-c2noc(C(=O)NCC(=O)NC3CCC(C(c4ccccc4)N(C)C)CC3)n2)c(C)c1 (stereo not drawn) [Example 772, 3-(2,4,6-trimethyl-phenyl)-[1,2,4]oxadiazole-5-carboxylic acid {[4-(dimethylamino-phenyl-methyl)-cyclohexylcarbamoyl]-methyl}-amide]	41	11		
COc1ccc(-c2noc(C(=O)NCCC(=O)NC3CCC(C(c4ccccc4)N(C)C)CC3)n2)cc1OC (stereo not drawn) [Example 774, 3-(3,4-dimethoxy-phenyl)-[1,2,4]oxadiazole-5-carboxylic acid {2-[4-(dimethylamino-phenyl-methyl)-cyclohexylcarbamoyl]-ethyl}-amide]	2	-8		
CN(C)C(c1ccccc1)C1CCC(NC(=O)CNC(=O)c2nc(-c3ccc(C(F)(F)F)cc3)no2)CC1 (stereo not drawn) [Example 765, 3-(4-trifluoromethyl-phenyl)-[1,2,4]oxadiazole-5-carboxylic acid {[4-(dimethylamino-phenyl-methyl)-cyclohexylcarbamoyl]-methyl}-amide]	29	15		

From patent US8106055B2, “Substituted amide compounds” (Gruenenthal GmbH, priority 2007, dated 2012)
